{"source": "ChEMBL document CHEMBL1201862", "about": "“PubChem BioAssay data set” (2004)", "key": {"Phospholipase D2": {"target": "Phospholipase D2 (Homo sapiens, UniProt O14939)", "sequence (O14939 whole entry)": "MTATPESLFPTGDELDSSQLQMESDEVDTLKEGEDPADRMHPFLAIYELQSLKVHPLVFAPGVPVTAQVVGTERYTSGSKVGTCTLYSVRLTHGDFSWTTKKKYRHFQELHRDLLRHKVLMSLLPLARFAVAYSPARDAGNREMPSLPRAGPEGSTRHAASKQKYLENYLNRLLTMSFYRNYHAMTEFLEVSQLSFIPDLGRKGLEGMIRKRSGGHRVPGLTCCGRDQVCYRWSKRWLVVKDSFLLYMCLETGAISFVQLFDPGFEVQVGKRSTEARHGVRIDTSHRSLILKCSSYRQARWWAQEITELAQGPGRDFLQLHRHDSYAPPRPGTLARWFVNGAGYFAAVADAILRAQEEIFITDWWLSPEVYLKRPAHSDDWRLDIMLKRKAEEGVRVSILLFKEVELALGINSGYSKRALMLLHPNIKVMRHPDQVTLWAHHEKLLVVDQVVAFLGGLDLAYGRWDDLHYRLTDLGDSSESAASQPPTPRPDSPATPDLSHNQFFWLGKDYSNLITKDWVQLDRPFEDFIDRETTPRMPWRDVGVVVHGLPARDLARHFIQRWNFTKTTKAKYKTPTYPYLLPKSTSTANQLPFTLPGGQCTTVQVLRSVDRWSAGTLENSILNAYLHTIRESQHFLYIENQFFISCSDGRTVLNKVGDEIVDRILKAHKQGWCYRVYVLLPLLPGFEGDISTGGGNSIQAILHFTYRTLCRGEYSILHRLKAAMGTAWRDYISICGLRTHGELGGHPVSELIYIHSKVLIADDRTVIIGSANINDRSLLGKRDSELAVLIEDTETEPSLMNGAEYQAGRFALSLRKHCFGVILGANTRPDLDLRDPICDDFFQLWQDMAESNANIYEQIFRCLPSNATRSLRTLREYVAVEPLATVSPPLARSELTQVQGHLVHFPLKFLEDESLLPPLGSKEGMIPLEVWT", "test": "PLD2 inhibitor potency in cells, dose response (AID 602147);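 further: cellular assay in HEK293 cells overexpressing GFP-tagged PLD2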", "format": "functional"}, "Phospholipase D1": {"target": "Phospholipase D1 (Homo sapiens, UniProt Q13393)", "test": "PLD1 inhibitor potency in cells, dose response (AID 602151);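 further: cellular PLD1 assay in Calu-1 cells stimulated with PMA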", "format": "functional"}, "[1]": {"target": "sn-1-specific diacylglycerol lipase ABHD11 (Mus musculus, UniProt Q8K4F5)", "sequence (Q8K4F5 whole entry)": "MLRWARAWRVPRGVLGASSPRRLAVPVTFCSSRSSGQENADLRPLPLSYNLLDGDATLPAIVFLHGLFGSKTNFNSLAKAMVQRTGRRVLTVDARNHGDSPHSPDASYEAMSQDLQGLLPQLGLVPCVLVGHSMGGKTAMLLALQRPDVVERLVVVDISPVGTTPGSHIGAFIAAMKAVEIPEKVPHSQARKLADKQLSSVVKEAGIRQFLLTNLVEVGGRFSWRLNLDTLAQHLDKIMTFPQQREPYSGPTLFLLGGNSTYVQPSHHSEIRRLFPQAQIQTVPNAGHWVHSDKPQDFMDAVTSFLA", "test": "Late stage assay provider results from the probe development effort to identify inhibitors of LYPLA1 and LYPLA2: Gel-based Activity-Based Protein Profiling (ABPP) IC50 for off-target ABHD11. [Related pubchem assays (depositor defined):AID2174, AID2202, AID2203, AID2233, AID504482, AID504498, AID504505, AID504507, AID504510, AID504520, AID504522, AID504892]", "format": "functional"}, "[2]": {"target": "T1, Small ubiquitin-related modifier 1 (Homo sapiens, UniProt P63165)", "T1 sequence (P63165 whole entry)": "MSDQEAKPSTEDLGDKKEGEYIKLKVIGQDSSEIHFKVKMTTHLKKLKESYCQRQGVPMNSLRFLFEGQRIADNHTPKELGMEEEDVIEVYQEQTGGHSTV", "test": "inhibitors of SUMO1 partner interactions, dose response, biochemical, FRET (AID 624383)", "format": "functional", "conditions": "read-out: IC50_Mean"}, "[3]": {"target": "T2, Dual specificity protein phosphatase 3 (Homo sapiens, UniProt P51452)", "T2 sequence (P51452 whole entry)": "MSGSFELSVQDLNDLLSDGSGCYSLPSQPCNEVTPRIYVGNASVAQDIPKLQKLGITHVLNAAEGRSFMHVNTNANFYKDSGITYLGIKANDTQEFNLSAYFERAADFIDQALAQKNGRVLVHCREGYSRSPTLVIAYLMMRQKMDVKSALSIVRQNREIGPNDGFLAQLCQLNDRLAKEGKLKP", "test": "VHR1 phosphatase inhibitors, biochemical (AID 1878)"}, "[4]": {"target": "T1, Small ubiquitin-related modifier 1", "test": "inhibitors of SUMO1 peptide binding, dose response, biochemical, fluorescence polarization, uHTS hits (AID 624382)", "format": "functional", "conditions": "read-out: IC50_Mean"}, "[5]": {"target": "T3, Dual specificity protein phosphatase 6 (Rattus norvegicus, UniProt Q64346)", "T3 sequence (Q64346 whole entry)": "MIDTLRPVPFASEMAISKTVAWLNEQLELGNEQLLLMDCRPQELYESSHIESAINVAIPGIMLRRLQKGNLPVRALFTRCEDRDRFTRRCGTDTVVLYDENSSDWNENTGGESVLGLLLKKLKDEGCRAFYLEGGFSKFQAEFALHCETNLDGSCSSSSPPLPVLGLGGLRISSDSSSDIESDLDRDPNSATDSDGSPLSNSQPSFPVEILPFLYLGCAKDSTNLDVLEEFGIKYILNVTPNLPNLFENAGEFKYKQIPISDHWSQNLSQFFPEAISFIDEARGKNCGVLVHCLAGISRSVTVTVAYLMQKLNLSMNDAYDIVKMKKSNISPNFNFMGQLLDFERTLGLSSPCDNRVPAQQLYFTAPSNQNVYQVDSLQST", "test": "MKP-3 phosphatase inhibitors, primary screen, biochemical, rat enzyme, in vitro (AID 425)"}, "[6]": {"target": "T4, Short transient receptor potential channel 4 (Mus musculus, UniProt Q9QUQ5)", "T4 sequence (Q9QUQ5 whole entry)": "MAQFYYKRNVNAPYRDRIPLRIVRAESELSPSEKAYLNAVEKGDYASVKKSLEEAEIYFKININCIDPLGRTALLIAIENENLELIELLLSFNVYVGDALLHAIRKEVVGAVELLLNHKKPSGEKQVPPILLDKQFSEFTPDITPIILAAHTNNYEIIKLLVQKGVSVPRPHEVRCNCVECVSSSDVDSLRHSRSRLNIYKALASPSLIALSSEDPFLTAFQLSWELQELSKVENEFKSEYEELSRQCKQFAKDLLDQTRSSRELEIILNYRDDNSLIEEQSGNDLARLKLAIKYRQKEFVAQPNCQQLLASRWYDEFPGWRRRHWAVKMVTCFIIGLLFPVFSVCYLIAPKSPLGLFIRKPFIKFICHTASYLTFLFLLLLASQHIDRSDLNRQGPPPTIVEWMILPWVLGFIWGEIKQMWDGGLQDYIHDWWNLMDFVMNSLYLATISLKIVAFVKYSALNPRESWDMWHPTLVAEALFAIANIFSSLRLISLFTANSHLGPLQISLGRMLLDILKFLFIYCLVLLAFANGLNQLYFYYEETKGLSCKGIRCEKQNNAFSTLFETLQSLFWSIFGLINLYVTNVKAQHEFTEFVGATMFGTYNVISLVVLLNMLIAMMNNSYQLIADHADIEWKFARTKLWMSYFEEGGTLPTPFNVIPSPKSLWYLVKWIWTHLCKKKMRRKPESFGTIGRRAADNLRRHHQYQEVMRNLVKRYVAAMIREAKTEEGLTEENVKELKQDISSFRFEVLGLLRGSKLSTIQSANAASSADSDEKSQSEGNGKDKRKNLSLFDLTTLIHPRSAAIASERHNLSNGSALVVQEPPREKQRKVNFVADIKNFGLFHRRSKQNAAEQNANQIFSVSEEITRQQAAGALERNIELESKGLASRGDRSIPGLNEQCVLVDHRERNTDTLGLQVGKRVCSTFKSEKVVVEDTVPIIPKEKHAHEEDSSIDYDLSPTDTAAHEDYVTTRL", "test": "mouse TRPC4 channel activators, dose response, cell-based, HEK293 TRPC4/mu-opioid, Fluo-4 calcium (AID 434937)", "format": "functional"}, "Phospholipase A2": {"target": "Phospholipase A2 (Homo sapiens, UniProt P04054)", "sequence (P04054 whole entry)": "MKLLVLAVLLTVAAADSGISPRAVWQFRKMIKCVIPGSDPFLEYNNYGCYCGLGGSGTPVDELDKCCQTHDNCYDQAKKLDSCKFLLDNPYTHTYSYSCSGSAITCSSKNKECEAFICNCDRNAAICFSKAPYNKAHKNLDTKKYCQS", "format": "functional"}, "[7]": {"target": "T2, Dual specificity protein phosphatase 3", "test": "VHR1 phosphatase inhibitors, primary screen, biochemical, absorbance, uHTS (AID 1654)"}, "Cysteine protease ATG4B": {"target": "Cysteine protease ATG4B (Homo sapiens, UniProt Q9Y4P1)", "format": "functional"}, "[8]": {"target": "Multidrug resistance protein CDR1 (Candida albicans, UniProt P43071)", "sequence (P43071 whole entry, looked up)": "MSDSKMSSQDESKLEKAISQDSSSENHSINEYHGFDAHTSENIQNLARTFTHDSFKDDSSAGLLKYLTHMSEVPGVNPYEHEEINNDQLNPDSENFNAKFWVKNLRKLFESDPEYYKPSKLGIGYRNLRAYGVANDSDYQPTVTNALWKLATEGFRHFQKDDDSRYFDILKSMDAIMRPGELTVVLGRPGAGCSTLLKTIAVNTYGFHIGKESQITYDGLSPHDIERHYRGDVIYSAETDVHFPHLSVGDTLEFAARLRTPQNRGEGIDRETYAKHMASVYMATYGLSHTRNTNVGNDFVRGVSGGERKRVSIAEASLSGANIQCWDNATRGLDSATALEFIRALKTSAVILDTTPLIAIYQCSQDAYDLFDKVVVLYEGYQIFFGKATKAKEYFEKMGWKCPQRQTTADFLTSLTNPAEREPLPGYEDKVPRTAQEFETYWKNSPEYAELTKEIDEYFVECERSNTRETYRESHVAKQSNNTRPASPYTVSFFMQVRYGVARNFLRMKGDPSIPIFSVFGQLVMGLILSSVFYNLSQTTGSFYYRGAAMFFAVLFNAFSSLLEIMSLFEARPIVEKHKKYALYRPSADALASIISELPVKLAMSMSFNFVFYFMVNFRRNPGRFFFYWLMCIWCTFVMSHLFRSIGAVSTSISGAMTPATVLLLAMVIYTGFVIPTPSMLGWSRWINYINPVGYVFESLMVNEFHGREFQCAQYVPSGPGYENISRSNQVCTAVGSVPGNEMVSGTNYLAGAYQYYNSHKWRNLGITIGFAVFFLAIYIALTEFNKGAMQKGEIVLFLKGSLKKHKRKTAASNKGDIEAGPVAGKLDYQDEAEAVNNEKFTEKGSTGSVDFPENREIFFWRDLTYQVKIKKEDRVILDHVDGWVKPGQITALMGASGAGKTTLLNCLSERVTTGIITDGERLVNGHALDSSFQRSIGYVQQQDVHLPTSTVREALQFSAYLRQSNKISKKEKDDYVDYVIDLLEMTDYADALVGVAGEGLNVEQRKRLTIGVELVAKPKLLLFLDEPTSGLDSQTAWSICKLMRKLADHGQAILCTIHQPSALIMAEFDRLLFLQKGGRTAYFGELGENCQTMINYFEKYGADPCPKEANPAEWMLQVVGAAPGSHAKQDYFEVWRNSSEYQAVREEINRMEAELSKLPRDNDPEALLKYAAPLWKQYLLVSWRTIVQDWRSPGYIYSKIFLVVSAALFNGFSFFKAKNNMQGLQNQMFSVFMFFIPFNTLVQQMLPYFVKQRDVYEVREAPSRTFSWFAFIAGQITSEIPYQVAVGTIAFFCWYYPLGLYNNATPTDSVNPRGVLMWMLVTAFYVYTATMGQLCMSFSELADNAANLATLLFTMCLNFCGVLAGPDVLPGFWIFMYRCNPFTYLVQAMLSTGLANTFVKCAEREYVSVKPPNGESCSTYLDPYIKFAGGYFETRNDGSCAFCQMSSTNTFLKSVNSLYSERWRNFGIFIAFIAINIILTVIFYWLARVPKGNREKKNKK", "test": "CaCDR1 efflux pump inhibitors in yeast, dose response, S. cerevisiae AD1-8u, singleplex, Cherry Pick1 hits (AID 588606)", "format": "functional"}, "[9]": {"target": "T5, Rac GTPase-activating protein 1 (Homo sapiens, UniProt Q9H0H5)", "T5 sequence (Q9H0H5 whole entry)": "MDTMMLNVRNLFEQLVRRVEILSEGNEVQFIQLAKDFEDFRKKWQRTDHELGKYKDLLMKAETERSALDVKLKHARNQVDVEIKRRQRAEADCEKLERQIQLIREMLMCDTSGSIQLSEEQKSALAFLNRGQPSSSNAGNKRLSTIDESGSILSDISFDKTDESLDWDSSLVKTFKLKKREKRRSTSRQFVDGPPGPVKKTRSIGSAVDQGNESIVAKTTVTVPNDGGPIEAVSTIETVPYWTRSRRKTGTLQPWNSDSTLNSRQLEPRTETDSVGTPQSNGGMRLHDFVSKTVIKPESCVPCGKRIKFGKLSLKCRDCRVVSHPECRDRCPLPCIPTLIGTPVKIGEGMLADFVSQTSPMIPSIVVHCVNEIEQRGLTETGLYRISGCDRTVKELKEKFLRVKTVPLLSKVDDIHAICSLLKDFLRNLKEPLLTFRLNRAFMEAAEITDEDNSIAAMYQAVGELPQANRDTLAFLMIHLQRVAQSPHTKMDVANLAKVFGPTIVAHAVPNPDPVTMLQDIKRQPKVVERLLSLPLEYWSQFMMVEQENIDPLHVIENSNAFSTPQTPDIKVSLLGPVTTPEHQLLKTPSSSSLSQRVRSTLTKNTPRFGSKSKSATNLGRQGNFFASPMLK", "test": "MgcRacGAP GTPase-activating activity inhibitors, confirmation, biochemical, ADP Hunter fluorescence, primary and confirmatory (AID 624330)", "format": "functional"}, "[10]": {"target": "Dual specificity tyrosine-phosphorylation-regulated kinase 1A (Rattus norvegicus, UniProt Q63470)", "format": "biochemical, Homo sapiens"}, "[11]": {"target": "Beta-adrenergic receptor kinase 1 (Homo sapiens, UniProt P25098)", "test": "aptamer displacement from bead-bound GRK2 – biochemical, cherry pick 1, bead flow cytometry, dose response (AID 504500)"}, "[12]": {"target": "Multidrug resistance protein CDR2 (Candida albicans (strain SC5314 / ATCC MYA-2876) (Yeast), UniProt P78595)", "sequence (P78595 whole entry)": "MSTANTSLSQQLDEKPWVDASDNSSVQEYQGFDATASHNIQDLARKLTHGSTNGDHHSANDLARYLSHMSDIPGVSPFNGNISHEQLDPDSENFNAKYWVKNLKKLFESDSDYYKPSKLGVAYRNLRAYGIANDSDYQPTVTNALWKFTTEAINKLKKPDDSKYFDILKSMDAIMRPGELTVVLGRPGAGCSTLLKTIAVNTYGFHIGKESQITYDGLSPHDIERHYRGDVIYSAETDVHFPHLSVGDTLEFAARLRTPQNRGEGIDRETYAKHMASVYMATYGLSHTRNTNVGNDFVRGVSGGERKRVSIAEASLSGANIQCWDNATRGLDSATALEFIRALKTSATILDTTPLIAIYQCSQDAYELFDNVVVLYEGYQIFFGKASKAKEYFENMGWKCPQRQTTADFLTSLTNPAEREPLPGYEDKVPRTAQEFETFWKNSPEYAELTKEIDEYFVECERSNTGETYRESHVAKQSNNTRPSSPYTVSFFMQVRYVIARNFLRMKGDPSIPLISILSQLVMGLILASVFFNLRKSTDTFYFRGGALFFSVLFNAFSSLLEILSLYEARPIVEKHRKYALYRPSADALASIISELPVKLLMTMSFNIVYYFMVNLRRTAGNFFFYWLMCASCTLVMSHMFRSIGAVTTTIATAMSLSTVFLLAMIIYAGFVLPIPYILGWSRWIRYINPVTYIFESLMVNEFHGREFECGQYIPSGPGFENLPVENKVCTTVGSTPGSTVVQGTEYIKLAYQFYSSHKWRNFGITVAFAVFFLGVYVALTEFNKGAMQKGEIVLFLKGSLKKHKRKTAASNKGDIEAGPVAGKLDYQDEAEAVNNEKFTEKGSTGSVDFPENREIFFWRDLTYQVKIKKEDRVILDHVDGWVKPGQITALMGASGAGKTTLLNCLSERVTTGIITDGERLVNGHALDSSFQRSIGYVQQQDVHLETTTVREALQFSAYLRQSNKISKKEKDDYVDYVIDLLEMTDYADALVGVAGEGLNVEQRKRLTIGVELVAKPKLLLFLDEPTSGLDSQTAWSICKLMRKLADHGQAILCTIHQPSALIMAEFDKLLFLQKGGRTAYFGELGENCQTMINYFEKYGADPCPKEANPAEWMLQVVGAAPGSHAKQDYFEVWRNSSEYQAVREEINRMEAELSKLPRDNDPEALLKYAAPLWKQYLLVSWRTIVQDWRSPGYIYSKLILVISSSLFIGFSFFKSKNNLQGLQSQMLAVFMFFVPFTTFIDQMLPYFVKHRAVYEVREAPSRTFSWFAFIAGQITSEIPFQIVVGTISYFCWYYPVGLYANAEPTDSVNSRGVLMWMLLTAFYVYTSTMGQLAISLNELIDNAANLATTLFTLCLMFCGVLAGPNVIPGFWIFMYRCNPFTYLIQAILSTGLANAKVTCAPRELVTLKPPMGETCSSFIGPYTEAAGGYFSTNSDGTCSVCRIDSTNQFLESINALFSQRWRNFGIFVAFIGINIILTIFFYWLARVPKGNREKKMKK", "test": "CaCDR2 efflux pump inhibitors in yeast, dose response, S. cerevisiae AD1-8u, singleplex, Cherry Pick1 hits (AID 588604)", "format": "functional"}}, "note": "Calls of active or inactive are those of the source."}
{"smiles": "Cc1ccc(C(=O)N[C@@H](C)CN2CCC(n3c(=O)[nH]c4c(F)cccc43)CC2)cc1", "values": [{"measurement": "IC50", "setting": "Phospholipase D2", "result": "20 µM (active)"}, {"measurement": "IC50", "setting": "Phospholipase D1", "result": "0.222 µM (active)"}]}
{"smiles": "CC(C)(C)C1CCN(C(=O)n2ncc(C(O)(c3ccccc3)c3ccccc3)n2)CC1", "values": [{"measurement": "IC50", "setting": "[1]", "result": "0.01 µM (active)"}]}
{"smiles": "O=C(O)c1ccc(-c2ccc(/C=c3/sc4nc5ccccc5n4c3=O)o2)cc1Cl", "values": [{"measurement": "IC50", "setting": "[2]", "result": "11.5 µM (active)"}, {"measurement": "IC50", "setting": "[3]", "result": "2.89 µM (active)"}, {"measurement": "IC50", "setting": "[4]", "result": "> 66.6 µM (inactive)"}, {"measurement": "IC50", "setting": "[5]", "result": "123 µM (not active)"}, {"measurement": "EC50", "setting": "[6]", "result": "5.96 µM (active)"}, {"measurement": "IC50", "setting": "Phospholipase A2", "result": "21.9 µM (inactive)"}, {"measurement": "IC50", "setting": "[7]", "result": "5.86 µM (active)"}, {"measurement": "IC50", "setting": "Cysteine protease ATG4B", "result": "12.2 µM (active)"}, {"measurement": "EC50", "setting": "[8]", "result": "12.2 µM (active)"}, {"measurement": "IC50", "setting": "[9]", "result": "48.4 µM (active)"}, {"measurement": "AC50", "setting": "[10]", "result": "2 µM (active)"}, {"measurement": "EC50", "setting": "[11]", "result": "9.71 µM (inactive)"}, {"measurement": "EC50", "setting": "[12]", "result": "20.3 µM (active)"}]}
